According to patent US9067966B2, “Lupeol-type triterpene derivatives as antivirals” (priority 2009, dated 2015):
Where two headings read alike, the source gives them in different places.

Tests used:
[1] = Cytotoxicity on Sup-T1 cells (MTT); assay type: cell-based; conditions: human, read-out: Percent Viability; for viability at 0.001 µM: concentration 1 nM; for viability at 0.1 µM: concentration 100 nM; for viability at 1 µM: concentration 1 μM; for viability at 100 µM: concentration 100 μM; for viability at 1 mM: concentration 1 mM
Protocol: Reduction of 3-(4,5-dimethylthiozol-2-yl)-2,5-diphenyltetrazolium bromide (MTT, sigma) is chosen as an optimal end point of cell viability measurement (Mosmann, 1983; Cole, 1986; Alley et al., 1988) […] (0.2×10^6 cells per well) are seeded in 96-well plates. Increasing concentrations of compound are added to the cells and incubated at 37° C. for about 14 hours in a CO2 Incubator with 5% CO2. The media is replaced with a fresh growth medium along with 20 μL of 5 mg/ml 3-(4,5-dimethylthiazol-2-yl)-2,5-diphenyltetrazolium bromide (MTT, Sigma). After incubation for about 4 hours in a humidified atmosphere, the media is removed and 200 μL of 0.1 N acidic isopropyl alcohol is added to the wells to dissolve the MTT-formazan crystals. The absorbance is recorded at 570 nm, immediately after the development of purple colour. Each experiment is conducted in triplicate and the data are represented as average, with standard deviation. Percent viability of the cells is computed with reference to the absorbance of reduced MTT in the experiments conducted in absence of any compound.

[2] = Cytotoxicity on Molt-4 cells (MTT); assay type: cell-based; conditions: human, read-out: Percent Viability; for viability at 24 h, 0.1 µM: concentration 0.1 μM; for viability at 24 h, 1 µM: concentration 1 μM; for viability at 24 h, 10 µM: concentration 10 μM; for viability at 24 h, 100 µM: concentration 100 μM
Protocol: 10 mM stock solution of the test compound was made in DMSO and stored at −20° C. for further use. During the day of the experiment working stocks were made by serial dilution with DMSO. The final concentration of DMSO in the test media is 1%.
MTT assay was performed in a 96 well format using Molt-4 cell line (Human acute T lymphoblastic leukemia)—a suspension culture maintained in RPMI with 10% FBS media.
Approximately 0.03 million cells are seeded/well and the plate was incubated for 16 hours. Following incubation, cells are treated with a test compound at a defined concentration in triplicates and incubation was continued for another 24 hours. At the end of the incubation, MTT reagent was added (10 μl, 5 mg/ml stock) to the plate and continued incubation for additional 4 hours. Reaction was terminated by addition of 200 μl 0.1N acidic propanol. The colour developed was measured by a plate reader using 590 nm filters. The percent viability was calculated by comparing mean absorbance value of sample with the control (Vehicle alone).

[3] = system: HIV-193IN 101; assay: P24 assay for anti-HIV activity in Sup-T1 cells; assay type: cell-based, HIV-1; conditions: Human immunodeficiency virus 1, SUP-T1, read-out: Percent Inhibition of HIV-193IN 101 Replication in Sup-T1 Cells (table title: Percent Viability)
Protocol: Viral p24 is measured after about 72 hours of post infection in presence of drugs using an ABL p24 ELISA kit. 0.5 million cells/well are taken into the 24 well plates and added increasing concentrations of drugs. 1 ng/ml of HIV-1 virus was added to each well and incubated for overnight at 37° C. (37° C. and 5% CO2). After about 16 hours incubation the media was changed and fresh media was added and cultured for about 72 hours. P24 was quantified at the 4th day of post-infection using an ABL kit according to manufacturer's instructions.
Percent Inhibition of HIV-193IN 101 Replication in Sup-T1 Cells

[4] = system: HIV-1 strain NL4-3; assay: Anti-HIV-1 luciferase indicator assay in MT2 cells, NL4-3; assay type: cell-based; conditions: viral strain NL4-3; for IC50: Human immunodeficiency virus 1, NL43, MT2, MT2 cells, read-out: IC50; for TI / Safety Index (CC50/IC50): MT2 cells
Protocol: (§1) Compound was dissolved in DMSO to make 30 mM stock. Then the 30 mM stock is further diluted to 4 mM using DMSO. The 4 mM stock was used as the top concentration to carry out an 11-point, 3-fold dilution scheme using DMSO in a 96-well plate to make the compound dose plate. Compounds in the dose plate were transferred to a new 96-well plate (working plate) containing PBS with 0.05% pluronic acid. From this working plate, the compound solution was transferred to the 384-well assay plates.
(§2) Control compounds used in compound control wells were prepared and added to assay plates individually.
(§3) MT2 cells were mixed with HIV-1 strain NL4-3 (or IIIB, or CNHN24) and the cell/virus mixture was added to the aforementioned antivirus assay plates. After incubation in a 37° C., 5% CO2 incubator, the supernatant from the assay plate was transferred to a new 384-well plate containing the indicator cells with a fire fly luciferase gene under HIV-1 LTR control. The expression level of luciferase was related to HIV-1 infectivity and was measured by Bright-Glo kit (Promega).
(§4) Therapeutic index (TI) was determined by taking ratio of CC50/IC50

[5] = system: HIV-1 strain IIIB; assay: Anti-HIV-1 luciferase indicator assay in MT2 cells, IIIB; assay type: cell-based; conditions: for IC50: Human immunodeficiency virus 1, IIIB; for TI / Safety Index (CC50/IC50): MT2 cells
Protocol: as §1, §2, §3, §4

[6] = system: HIV-1 strain CNHN24; assay: Anti-HIV-1 luciferase indicator assay in MT2 cells, CNHN24; assay type: cell-based; conditions: for TI / Safety Index (CC50/IC50): MT2 cells
Protocol: as §1, §2, §3, §4

[7] = in vitro; assay type: cell-based; conditions: human, CC50
Protocol: as §1
For cytotoxicity assay the same amount of MT2 cells as in antivirus assay but without HIV-1 virus were added to the cytotoxicity plates. The cytotoxicity was measured by Cell Titer-Glo cell viability assay (Promega).

[8] = system: HIV-1 strain 92-HT599; assay: Anti HIV-1 p24 assay, strain 92-HT599 in MT2 cells; assay type: cell-based; conditions: Human immunodeficiency virus 1, MT2 cells, read-out: Percent inhibition
Protocol: MT2 cells were infected with the HIV-1 strain 92-HT599 (10TCID50/30000 cells). The infected cells are plated at the concentration of 30000 cells per well in a 96 well assay micro plate. A test compound was added to the micro plate in a defined format with the final concentration of DMSO (vehicle) being not more than 1%. Incubation was carried out in a CO2 incubator for 96 hours for viral infection. At the end of incubation period an aliquot from each well was taken for p24 estimation. The quantitation of p24 is an index for antiviral activity of the compound. Percent inhibition was calculated with reference to control values (vehicle).
P24 estimation was carried out using an Advance Biosciences kit as per the procedure as detailed by supplier.
[…] was made by dissolving test compound in DMSO. Subsequent dilutions were made with DMSO to make necessary working stocks (100×).

[9] = MT2, MT2 cells, viral strain II B, read-out: IC50
[10] = Human immunodeficiency virus 1, MT2, MT2 cells, viral strain CNHN24, read-out: IC50

`C=C(C)[C@@H]1CC[C@]2(C(=O)N[C@H]3C[C@@H](C(=O)N4CCCCC4)C3(C)C)CC[C@]3(C)[C@H](CC[C@@H]4[C@@]5(C)CC[C@H](OC(=O)[C@@H]6C[C@H](C(=O)O)C6(C)C)C(C)(C)[C@@H]5CC[C@]43C)[C@@H]12` gave a melting point of 257.7 to 269 °C.

Work on `C=C(C)[C@@H]1CC[C@]2(C(=O)N[C@@H]3C[C@H](C(=O)OCc4ccccc4)C3(C)C)CC[C@]3(C)[C@H](CC[C@@H]4[C@@]5(C)CC[C@H](OC(=O)CC(C)(C)C(=O)O)C(C)(C)[C@@H]5CC[C@]43C)[C@@H]12` yielded a melting point of 64.7 to 100.4 °C.

In the case of `C=C(C)[C@@H]1CC[C@]2(C(=O)O)CC[C@]3(C)[C@H](CC[C@@H]4[C@@]5(C)CC[C@H](OC(=O)[C@@H]6C[C@H](C(=O)O)C6(C)C)C(C)(C)[C@@H]5CC[C@]43C)[C@@H]12` [Example 4, (1R,3aS,5aR,5bR,7aR,9S,11aR,11bR,13aR,13bR)-9-((1R,3S)-3-carboxy-2,2-dimethylcyclobutanecarbonyloxy)-5a,5b,8,8,11a-pentamethyl-1-(prop-1-en-2-yl)icosahydro-1H-cyclopenta[a]chrysene-3a-carboxylic acid], the viability at 0.001 µM [1] is reported as 85.8%, the viability at 0.1 µM [1] is reported as 86.8% and the viability at 1 µM [1] is reported as 85.2%. For the same molecule, the viability at 100 µM [1] was 39%, the viability at 1 mM [1] was 26.2% and the viability at 24 h, 0.1 µM [2] was 101%. For the same molecule, the viability at 24 h, 1 µM [2] was 98.7%, the viability at 24 h, 10 µM [2] was 102% and the viability at 24 h, 100 µM [2] was 7.03%. The inhibition at 0.0001 µM [3] was 13%, the inhibition at 0.001 µM [3] was 17.7% and the inhibition at 0.1 µM [3] was 23.5%. The inhibition at 1 µM [3] was 42.4%, the inhibition at 100 µM [3] was 87.5% and the IC50 [4] was 201 nM. For the same molecule, the “TI / Safety Index (CC50/IC50)” value [4] was 91, the IC50 [5, 9] was 364 nM and the “TI / Safety Index (CC50/IC50)” value ([5]; viral strain II B) was 54. For the same molecule, the IC50 [6, 10] was 218 nM, the “TI / Safety Index (CC50/IC50)” value ([6]; viral strain CNHN24) was 91 and the CC50 [7] was 20000 nM.

Work on `C=C(C)[C@@H]1CC[C@]2(C(=O)O)CC[C@]3(C)C(CC[C@@H]4[C@@]5(C)[C@@H](C(=O)O)[C@H](OC(=O)CC(C)(C)C(=O)O)C(C)(C)[C@@H]5CC[C@]43C)C12` (stereo partly drawn) [Example 6, (1R,2S,3aR,5aR,5bR,7aS,10R,12aR,12bR)-2-(3-carboxy-3-methylbutanoyloxy)-3,3,5a,5b,12b-pentamethyl-10-(prop-1-en-2-yl)icosahydrodicyclopenta[a,i]phenanthrene-1,7a-dicarboxylic acid] yielded a viability at 0.001 µM [1] of 86.9%, a viability at 0.1 µM [1] of 82.7% and a viability at 1 µM [1] of 88.6%. It also gave a viability at 100 µM [1] of 88.8%, a viability at 1 mM [1] of 23.1% and a viability at 24 h, 0.1 µM [2] of 103%. It also gave a viability at 24 h, 1 µM [2] of 99%, a viability at 24 h, 10 µM [2] of 82.8% and a viability at 24 h, 100 µM [2] of 7.27%. The inhibition at 0.0001 µM [3] was 17.5%, the inhibition at 0.001 µM [3] was 15.2% and the inhibition at 0.1 µM [3] was 21.1%. It also gave an inhibition at 1 µM [3] of 32.1% and an inhibition at 100 µM [3] of 34.9%.

Molecule `C=C(C)[C@@H]1CC[C@]2(C(=O)N[C@H]3C[C@@H](C(=O)N4CCCC4)C3(C)C)CC[C@]3(C)[C@H](CC[C@@H]4[C@@]5(C)CC[C@H](OC(=O)CC(C)(C)C(=O)O)C(C)(C)[C@@H]5CC[C@]43C)[C@@H]12` [Example 15, 4-((1R,3aS,5aR,5bR,7aR,9S,11aR,11bR,13aR,13bR)-3a-((1S,3R)-2,2-dimethyl-3-(pyrrolidine-1-carbonyl)cyclobutylcarbamoyl)-5a,5b,8,8,11a-pentamethyl-1-(prop-1-en-2-yl)icosahydro-1H-cyclopenta[a]chrysen-9-yloxy)-2,2-dimethyl-4-oxobutanoic acid] has an inhibition at 0.1 µM ([8]; HIV-1 92-HT599, p24, concentration 0.1 μM) of 86%, an inhibition at 1 µM ([8]; HIV-1 92-HT599, p24, concentration 1 μM) of 98% and a melting point of 110 to 114 °C.

For `C=C(C)[C@@H]1CC[C@]2(C(=O)N[C@@H]3CC[C@H](CN4CCC(Cc5ccccc5)CC4)C3)CC[C@]3(C)[C@H](CC[C@@H]4[C@@]5(C)CC[C@H](OC(=O)CC(C)(C)CC(=O)O)C(C)(C)[C@@H]5CC[C@]43C)[C@@H]12` [Example 94, 5-((1R,3aS,5aR,5bR,7aR,9S,11aR,11bR,13aR,13bR)-3a-((1R,3S)-3-((4-benzylpiperidin-1-yl)methyl)cyclopentylcarbamoyl)-5a,5b,8,8,11a-pentamethyl-1-(prop-1-en-2-yl)icosahydro-1H-cyclopenta[a]chrysen-9-yloxy)-3,3-dimethyl-5-oxopentanoic acid], the IC50 [4] was 23 nM, the “TI / Safety Index (CC50/IC50)” value [4] was 173 and the IC50 [5, 9] was 19 nM. For the same molecule, the “TI / Safety Index (CC50/IC50)” value ([5]; viral strain II B) was 210, the IC50 [6, 10] was 26 nM and the “TI / Safety Index (CC50/IC50)” value ([6]; viral strain CNHN24) was 153. For the same molecule, the CC50 [7] was 4000 nM.

With `C=C(C)[C@@H]1CC[C@]2(C(=O)N[C@@H]3C=C[C@H](CN4CCOCC4)C3)CC[C@]3(C)[C@H](CC[C@@H]4[C@@]5(C)CC[C@H](OC(=O)CC(C)(C)C(=O)O)C(C)(C)[C@@H]5CC[C@]43C)[C@@H]12` [Example 95, 2,2-dimethyl-4-oxo-4-((1R,3aS,5aR,5bR,7aR,9S,11aR,11bR,13aR,13bR)-5a,5b,8,8,11a-pentamethyl-3a-((1S,4R)-4-(morpholinomethyl)cyclopent-2-enylcarbamoyl)-1-(prop-1-en-2-yl)icosahydro-1H-cyclopenta[a]chrysen-9-yloxy)butanoic acid] the IC50 [4] was 4 nM, the “TI / Safety Index (CC50/IC50)” value [4] was 5000 and the IC50 ([5]; MT2) was 1 nM. The “TI / Safety Index (CC50/IC50)” value ([5]; viral strain II B) was 20000, the IC50 ([6]; Human immunodeficiency virus 1, MT2) was 3 nM and the CC50 [7] was greater than 20000 nM.
